The record followed here is patent US9206130B2, “Quinoline derivatives as AXL kinase inhibitors” (Max-Planck-Gesellschaft zur Förderung der Wissenschaften …, priority 2008, dated 2015).

Structures are written as SMILES. Counter-ions that a name gives are not always drawn.

Broadly, the IC50 is the concentration at which inhibition is half-maximal. A word on the melting point: it is the temperature of the solid-liquid transition.

Data set [1] deals with T1, wild type AXL (wtAXL) receptor tyrosine kinase (Homo sapiens, UniProt P30530).
T1 construct: WtAXL cDNA was cloned into vector pLXSN(ESK) and transfected into Phoenix E packaging cells; expressed in transfected cells; host or cells: NIH3T3 N7 mouse fibroblasts, retrovirally infected (clone 22)
T1 sequence (P30530 26-894): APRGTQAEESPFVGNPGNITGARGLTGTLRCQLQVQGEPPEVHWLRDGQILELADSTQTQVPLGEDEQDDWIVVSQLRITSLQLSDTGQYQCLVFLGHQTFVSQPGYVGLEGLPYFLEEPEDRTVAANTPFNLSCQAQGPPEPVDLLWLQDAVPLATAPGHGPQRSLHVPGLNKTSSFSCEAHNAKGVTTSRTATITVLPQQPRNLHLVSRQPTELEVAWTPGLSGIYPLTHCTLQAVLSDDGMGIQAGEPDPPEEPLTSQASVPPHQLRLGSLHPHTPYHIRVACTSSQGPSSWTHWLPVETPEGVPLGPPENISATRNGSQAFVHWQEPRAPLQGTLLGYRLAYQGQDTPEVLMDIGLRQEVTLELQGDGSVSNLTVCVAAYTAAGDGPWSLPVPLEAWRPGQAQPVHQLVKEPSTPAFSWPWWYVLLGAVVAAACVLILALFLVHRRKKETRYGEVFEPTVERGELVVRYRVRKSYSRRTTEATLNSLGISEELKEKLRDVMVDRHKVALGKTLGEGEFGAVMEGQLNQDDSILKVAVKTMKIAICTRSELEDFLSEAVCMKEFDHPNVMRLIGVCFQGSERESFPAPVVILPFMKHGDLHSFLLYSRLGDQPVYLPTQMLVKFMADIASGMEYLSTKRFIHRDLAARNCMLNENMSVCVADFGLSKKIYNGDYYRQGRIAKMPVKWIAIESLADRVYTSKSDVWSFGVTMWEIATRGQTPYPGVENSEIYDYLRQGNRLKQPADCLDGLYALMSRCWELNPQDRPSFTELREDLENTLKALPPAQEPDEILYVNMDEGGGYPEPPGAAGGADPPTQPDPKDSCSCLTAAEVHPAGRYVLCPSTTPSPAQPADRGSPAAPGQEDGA
Briefly: NIH-3T3-AXL cellular tyrosine kinase assay (inhibition of AXL phosphorylation). Format: cell-based. The conditions noted are these: AXL phosphorylation in NIH-3T3-AXL (clone 22) cells, serum-depleted, 2 h with compound, immunoprecipitation / anti-phosphotyrosine blot. As for the experimental part:
3) Inhibitory Activity of Compounds on Axl Phosphorylation in NIH-3T3-AXL Cellular Tyrosine Kinase Assay
The viral supernatant was collected and used to infect target cells NIH3T3 N7. Monoclonal NIH3T3-AXL cell lines stably expressing wtAXL were generated by selecting retrovirally infected cells in medium containing puromycin (2 μg/ml) and subsequent clonal separation.
NIH-3T3-AXL Cellular Kinase Assay
Serial dilutions of compounds were added, and the cells were further incubated or 2 h. […] The clarified cell lysate (10 min at 13000 rpm at 4° C.) were used for immunoprecipitation. Equal amounts of protein were mixed with 2 μg anti-AXL polyclonal antibody (homemade) and 20 μl Protein A sepharose beads, and rotated for 6 hr at 4° C. After immunoprecipitation, the beads were washed three times with 1×HNTG (50 mM HEPES (pH 7.5), 150 mM NaCl, 10% Glycerol, 0.2% Triton X-100). The final pellet was suspended in 20 μl 2× Laemmli buffer, and boiled for 5 min at 100° C. […] The membrane was then incubated with anti-phosphotyrosine antibody (4G10) overnight at 4° C. followed by washing with 1×TBST buffer three times. After incubating membrane with HRP-conjugated anti-mouse secondary antibody for 1 hour at room temperature followed by washing with 1×TBST buffer three times, the proteins were visualized by ECL.

With `COc1cc2nccc(Oc3ccc(NS(=O)(=O)c4cccc(-c5ccccc5)c4)cc3OC)c2cc1OC` [Example A138, Biphenyl-3-sulfonic acid [4-(6,7-dimethoxy-quinolin-4-yloxy)-3-methoxy-phenyl]-amide], the melting point lay in the range of 108 to 110 °C. Further, the IC50 in data set [1] was greater than 10000 nM.
The like results for `COc1ccc(S(=O)(=O)Nc2ccc(Oc3cc(C)nc4c(C(F)(F)F)cccc34)c(F)c2)cc1F` [Example C09, 3-Fluoro-N-[3-fluoro-4-(2-methyl-8-trifluoromethyl-quinolin-4-yloxy)-phenyl]-4-methoxy-benzenesulfonamide] were, in that order, 128 to 130 °C and greater than 10000 nM.
On the same counts, the results for `COc1cc2nccc(Oc3ccc(NS(=O)(=O)c4cc(Cl)cc(Cl)c4OC)c(F)c3)c2cc1OC` [Example A50, 3,5-Dichloro-N-[4-(6,7-dimethoxy-quinolin-4-yloxy)-2-fluoro-phenyl]-2-methoxy-benzenesulfonamide] are 193 to 195 °C and less than 1000 nM.
The like results for `COc1cc2nccc(Oc3ccc(NS(=O)(=O)c4cccc(Oc5ccccc5)c4)c(C)c3)c2cc1OC` [Example A90, N-[4-(6,7-Dimethoxy-quinolin-4-yloxy)-2-methyl-phenyl]-3-phenoxy-benzenesulfonamide] were, in that order, 169 to 170 °C and greater than 10000 nM.
`COc1cc2nccc(Oc3ccc(NS(=O)(=O)C4CC4)c(F)c3)c2cc1OC` [Example A33, Cyclopropanesulfonic acid [4-(6,7-dimethoxy-quinolin-4-yloxy)-2-fluoro-phenyl]-amide] came in with a melting point of 179 to 180 °C. In data set [1], the IC50 was greater than 10000 nM.
In turn, `COc1cc2nccc(Oc3ccc(NS(=O)(=O)c4ccc(Br)c(Cl)c4)cc3F)c2cc1OC` [Example A124, 4-Bromo-3-chloro-N-[4-(6,7-dimethoxy-quinolin-4-yloxy)-3-fluoro-phenyl]-benzenesulfonamide] had a melting point of 144 to 147 °C. Besides, the IC50 in data set [1] was greater than 3000 nM.
`COc1cc2c(Oc3ccc(NS(=O)(=O)c4cccc5ccccc45)cc3F)ccnc2cc1OCCCN` [Example D02, Naphthalene-1-sulfonic acid {4-[7-(3-amino-propoxy)-6-methoxy-quinolin-4-yloxy]-3-fluoro-phenyl}-amide hydrochloride]: the IC50 in data set [1] was 695 nM.
Same read-out and setting: next, `COc1cc2c(Oc3ccc(NS(=O)(=O)c4cccc(-c5ccccc5)c4)cc3F)ccnc2cc1OCCCN` [Example D03, Biphenyl-3-sulfonic acid {4-[7-(3-amino-propoxy)-6-methoxy-quinolin-4-yloxy]-3-fluoro-phenyl}-amide hydrochloride]: 837 nM; `COc1cc2c(Oc3ccc(NS(=O)(=O)c4ccccc4OC(F)(F)F)cc3F)ccnc2cc1OCCCN` [Example D15, N-{4-[7-(3-Amino-propoxy)-6-methoxy-quinolin-4-yloxy]-3-fluoro-phenyl}-2-trifluoromethoxy-benzenesulfonamide hydrochloride]: 364 nM.
Still for that read-out and setting: next, `COc1cc2nccc(Oc3ccc(NS(=O)(=O)c4ccc(Cl)cc4F)cc3OC)c2cc1OC` [Example A141, 4-Chloro-N-[4-(6,7-dimethoxy-quinolin-4-yloxy)-3-methoxy-phenyl]-2-fluoro-benzenesulfonamide]: greater than 10000 nM.
Compound `COc1cc2nccc(Oc3ccc(NS(=O)(=O)c4ccccc4C(F)(F)F)cc3OC)c2cc1OC` gave a melting point of 198 to 199 °C.
On the same count and under the same terms, with `COc1cc2c(Oc3ccc(NS(=O)(=O)c4ccccc4F)cc3F)ccnc2cc1OCCCN1CCOCC1` [Example D45, 2-Fluoro-N-{3-fluoro-4-[6-methoxy-7-(3-morpholin-4-yl-propoxy)-quinolin-4-yloxy]-phenyl}-benzenesulfonamide] the figure was 179 to 181 °C; with `COc1cc2nccc(Oc3ccc(NS(=O)(=O)c4ccc(Cl)c(Cl)c4)c(F)c3)c2cc1OC` [Example A49, 3,4-Dichloro-N-[4-(6,7-dimethoxy-quinolin-4-yloxy)-2-fluoro-phenyl]-benzenesulfonamide], 225 to 227 °C.
